Assay results reported in patent EP0039860A1, “Surfactants, their preparation and their use in cosmetic cleansing compositions, and cosmetic cleansing compositions mild to the skin containing them” (Henkel Kommanditgesellschaft auf Aktien, priority 1980, dated 1981).

Test system: Zein
Experiment: Zein test (skin compatibility: nitrogen solubilised from zein by surfactant solution, micro-Kjeldahl)
Parameters: species or system Mais
Conditions: 20 %ig surfactant solution, pH 7; 40 ml with 2 g Zein, 1 Stunde, 35° C; lower Zein number = better skin compatibility
Text: Zur Bestimmung der Hautfreundlichkeit der erfindungsgemäßen neuartigen Tenside wurde der Zein-Test durchgeführt. Als Testprodukt diente das Neutralisationsprodukt von Fettalkohol-C12-C14-ether-monoschwefelsäureester mit circa 2 Mol Ethylenoxid mit N-ß-Hydroxyethyl-N-methyl- glucamin (Produkt A). Als Vergleichssubstanzen dienten Nonylbenzolsulfonat (Na-Salz), Natriumlaurylsulfat und Natrium-Fettalkohol-C12-C14-ethersulfat mit 2-Ethylenoxidgruppen im Molekül.
Die bei dem Zeintest erhaltene Zeinzahl gibt an, wieviel mg Stickstoff in 100 ml einer Tensidlösung enthalten sind, wenn diese 1 Stunde lang bei 35° C mit 2 g Zein versetzt wird. Je niedriger die Zeinzahl, um so besser ist die Hautverträglichieit des Produktes. Der Zein-Test wird in der nachfolgend beschriebenen Weise durchgeführt:
1. Ansetzen der Stammlösunsen:
Die 1/20 n Natronlauge wird mit Benzoesäure (DAB 6) eingestellt. Dazu werden circa 40 bis 50 mg Benzoesäure in einen 100 ml Erlenmeyerkolben eingewogen. und in ungefähr 25 ml neutralisiertem Ethylalkohol gelöst. Zum Neutralisieren wird der Alkohol mit einigen Tropfen verdünnter Natronlauge gegen Phenolphthalein bis zur bleibenden Rosafärbung versetzt. Die gelöste Benzoesäure wird nun mit der 1/20 n Natronlauge bis zur bleibenden Rosafärbung titriert und der Faktor berechnet: [drawing 2]
1.2. Schwefelsäure 1/20 n
Aus einer Mikrobürette läßt man 10 ml der 1/20 n Schwefelsäure in einen 100 ml Erlenmeyerkolben einlaufen, gibt 5 Tropfen Tashiro-Indikator hinzu und bringt die Vorlage am Destillierapparat an. In den Destillierkolben gibt man 20 ml 25 %ige Natronlauge, verdünnt mit destilliertem Wasser bis zur Hälfte des Volumens und destilliert 7 bis 10 Minuten. Die Vorlage wird nun abgenommen, und, nachdem mit etwas destilliertem Wasser das in Schwefelsäure eintauchende Glasrohr abgespült wurde, titriert man mit 1/20 n Natronlauge von violett auf blaugrün. Der erhaltene Wert ist der Blind-_ wert, der auch gleichzeitig eine Kontrolle des Destillier-Apparates ist und regelmäßig bestimmt wird. Diese Zahl wird der Berechnung des Stickstoffgehaltes zugrunde gelegt.
[…] Methylrot in 300 ml Ethanol und 0,40 g Methylenblau in 400 ml 50 %igem Ethanol.
1.4. 25 %ige Natronlauge aus NaOH-Plätzchen.
1.5. Das zu prüfende Tensid wird als x-prozentige Lösung mit destilliertem Wasser angesetzt und auf pH 7 eingestellt.
2. Aufbereitung des Zein:
Das verwendete Zein aus Mais (MG 20.000 - 30.000; ~98,5 % Protein) wird im Vakuumtrockenschrank bei maximal 40° C bis zur Gewichtskonstanz getrocknet.
3. Durchführung des Tests:
In eine 50 ml-Enghalsflasche mit Schraubverschluß werden 40 ml Tensidlösung pipettiert und in einem Wasserbad auf 35° C temperiert. […]

| Compound | Zein-Zahl |
| --- | --- |
| Natrium-Fettalkohol-C12-C14-ethersulfat mit 2-Ethylenoxidgruppen im Molekül [Fettalkohol-C12-C14-ethersulfat mit 2 EO] | 329 mg Stickstoff in 100 ml |
| CCCCCCCCCCCCOS(=O)(=O)O [Natriumlaurylsulfat] | 535 mg Stickstoff in 100 ml |
| Neutralisationsprodukt aus N-β-Hydroxyethyl-N-methylglucamin und Fettalkohol-C12-C14-ethermonoschwefelsäureester mit circa 2 Mol Ethylenoxid | 223 mg Stickstoff in 100 ml |
| Nonylbenzolsulfonat (Na-Salz) | 620 mg Stickstoff in 100 ml |
